One data set relates to creatine kinase. Nature of the data set: Creatine kinase assay in Ad5-wt-ER infected HAECT-1 cells. The note with it: Homo sapiens; for EC50: HAECT1, CK stimulation, N/O = activity not observed at concentrations tested, read-out: CK IC50; for Emax: HAECT1, relative to maximal stimulation observed with E2, read-out: CK Efficacy. It counts as cell-based, human. How it is done:
(§1) After four hours, cells were washed with EBM-BSA and incubated overnight in the same medium. […] After two hours, cells were washed and incubated at 34° C. for 1 hour. […] Control (no ER infection) cells were processed as above without Ad5-wt-hERα virus infection. […] Cells were subsequently washed with 300 μl of Dulbecco's phosphate buffered saline and lysed in 50 μl of Cell Culture Lysis Reagent (Promega). Luciferase was determined on a Wallac Victor^2 Luminometer (Gaithersburg, Md.) using 10 μl of lysate and mixing with 100 lμof Promega Luciferase Assay reagent. […] For IC50 and EC50 calculations, mean IL-6, luciferase or CK values versus log10 of the compound concentration were fitted to a four parameter logistic equation. The IC50/EC50 value, ‘Hill slope’, upper and lower limits of the curve were iteratively estimated.

The test system of the next data set is IL-6. As to the kind of experiment: IL-6 assay (ELISA) in Ad5-wt-ER infected HAECT-1 cells (IL-1β induced). It counts as cell-based, human. The note with it: Homo sapiens; for IC50: HAECT1; for Emax: HAECT1, relative to maximal inhibition observed with E2, read-out: IL-6 Efficacy. The method, then: as §1

The structures appear in SMILES notation.

Regarding `CC[C@H]1c2cccn2-c2c(cc(F)c(F)c2F)N1S(=O)(=O)c1ccc(O)cc1` [97 (S), 4-{[(4S)-4-ethyl-7,8,9-trifluoropyrrolo[1,2-a]quinoxalin-5(4H)-yl]sulfonyl}phenol], the melting point was in the range of 155 to 156 °C. For the same compound, in the data set with creatine kinase, the EC50 turned out to be 31 nM and the Emax was 37%. In the data set with IL-6, 9 nM corresponded to half-maximal inhibition (IC50) and the Emax stood at 134%.
Consider `CC[C@H]1c2ccc(C#N)n2-c2cc(F)c(F)cc2N1S(=O)(=O)c1ccc(O)cc1` [101 (S), (4S)-4-ethyl-7,8-difluoro-5-[(4-hydroxyphenyl)sulfonyl]-4,5-dihydropyrrolo[1,2-a]quinoxaline-1-carbonitrile], for which the melting point lay in the range of 191 to 192 °C. Besides, in the data set on creatine kinase, the EC50 worked out at 91 nM and the Emax was found to be 30%. Besides, in the data set on IL-6, the IC50 is 424 nM and the Emax worked out at 131%.
`CC[C@@H]1c2cccn2-c2cc(F)c(F)cc2N1S(=O)(=O)c1ccc(O)c(C)c1` [102 (R), 4-{[(4R)-4-ethyl-7,8-difluoropyrrolo[1,2-a]quinoxalin-5(4H)-yl]sulfonyl}-2-methylphenol] registered a melting point of 160 to 162 °C. In the data set with creatine kinase, the EC50 was determined as 1770 nM and the Emax was determined as 31%. For the same compound, in the data set with IL-6, 448 nM corresponded to half-maximal inhibition (IC50) and the Emax came out at 117%.
`CC[C@H]1c2cccn2-c2cc(F)c(F)cc2N1S(=O)(=O)c1ccc(O)c(C)c1` [102 (S), 4-{[(4S)-4-ethyl-7,8-difluoropyrrolo[1,2-a]quinoxalin-5(4H)-yl]sulfonyl}-2-methylphenol] registered a melting point of 161 to 163 °C. Moreover, in the data set on IL-6, inhibition was half-maximal at 8.4 nM (IC50) and the Emax worked out at 161%.
The compound `C[C@@H]1c2cccn2-c2ccc(F)cc2N1C(=O)c1ccc(O)cc1` [123 (R), 4-{[(4R)-7-fluoro-4-methylpyrrolo[1,2-a]quinoxalin-5(4H)-yl]carbonyl}phenol] gave a melting point of 125 to 129 °C. Moreover, in the data set on creatine kinase, the EC50 worked out at 198 nM and the Emax is 27%. Also, in the data set with IL-6, the IC50 worked out at 23 nM and the Emax is 112%.
As for `CC[C@@H]1c2cccn2-c2ccc(Cl)cc2N1C(=O)c1ccc(O)cc1O` [125 (R), 4-{[(4R)-7-chloro-4-ethylpyrrolo[1,2-a]quinoxalin-5(4H)-yl]carbonyl}benzene-1,3-diol], the melting point lay in the range of 213 to 214 °C. In addition, in the data set on IL-6, the IC50 was 0.4 nM and the Emax was found to be 120%.
As for `CC[C@@H]1c2cccn2-c2ccc(F)cc2N1C(=O)c1cccc(O)c1` [127 (R), 3-{[(4R)-4-ethyl-7-fluoropyrrolo[1,2-a]quinoxalin-5(4H)-yl]carbonyl}phenol], the melting point lay within 115 to 116 °C. Also, in the data set on creatine kinase, the EC50 was 159 nM and the Emax is 35%. Also, in the data set on IL-6, the IC50 stood at 62 nM and the Emax was determined as 132%.
On to `CC[C@@H]1c2cccn2-c2ccc(Br)cc2N1S(=O)(=O)c1ccc(O)cc1` [Example 78, 4-{[(4R)-7-bromo-4-ethylpyrrolo[1,2-a]quinoxalin-5(4H)-yl]sulfonyl}phenol], for which the melting point lay in the range of 187 to 189 °C. In the data set on IL-6, the IC50 came to 1100 nM and the Emax was 40%.
The matching figures for `CCC1c2ccc(C#N)n2-c2ccc(Br)cc2N1S(=O)(=O)c1ccc(O)cc1` (stereo not shown) [Example 80, 7-bromo-4-ethyl-5-[(4-hydroxyphenyl)sulfonyl]-4,5-dihydropyrrolo[1,2-a]quinoxaline-1-carbonitrile]: 190 to 192 °C, 444 nM and 103%.
`CCC1c2cccn2-c2ccc(Br)cc2N1S(=O)(=O)c1cccc(O)c1` (stereo not shown) [Example 82, 3-[(7-bromo-4-ethylpyrrolo[1,2-a]quinoxalin-5(4H)-yl)sulfonyl]phenol] yielded a melting point of 176 to 178 °C. For the same compound, in the data set on IL-6, the IC50 came to 51 nM and the Emax is 114%.
For `CCC1c2ccc(C#N)n2-c2cc(F)c(F)cc2N1S(=O)(=O)c1cccc(O)c1` (stereo not shown) [Example 85, 4-ethyl-7,8-difluoro-5-[(3-hydroxyphenyl)sulfonyl]-4,5-dihydropyrrolo[1,2-a]quinoxaline-1-carbonitrile], the melting point is 179 to 182 °C. Besides, in the data set on IL-6, it took 696 nM to reach half-maximal inhibition (IC50) and the Emax was 112%.
Compound `CCC1c2cccn2-c2ccc(F)cc2N1S(=O)(=O)c1cccc(O)c1` (stereo not shown) [Example 87, 3-[(4-ethyl-7-fluoropyrrolo[1,2-a]quinoxalin-5(4H)-yl)sulfonyl]phenol] came in with a melting point of 153 to 154 °C. Besides, in the data set on creatine kinase, the EC50 was found to be 205 nM and the Emax is 33%. In the data set with IL-6, half-maximal inhibition (IC50) required 41 nM and the Emax was determined as 112%.
On to `CC[C@H]1c2ccc(C#N)n2-c2ccc(Br)cc2N1S(=O)(=O)c1ccc(O)cc1` [Example 89, (4S)-7-bromo-4-ethyl-5-[(4-hydroxyphenyl)sulfonyl]-4,5-dihydropyrrolo[1,2-a]quinoxaline-1-carbonitrile], for which the melting point was in the range of 189 to 191 °C. For the same compound, in the data set on creatine kinase, the EC50 was found to be 9.9 nM and the Emax came to 7%. For the same compound, in the data set on IL-6, the IC50 is 150 nM and the Emax came to 188%.
`CC[C@@H]1c2ccc(C#N)n2-c2ccc(Br)cc2N1S(=O)(=O)c1ccc(O)cc1` [Example 91, (4R)-7-bromo-4-ethyl-5-[(4-hydroxyphenyl)sulfonyl]-4,5-dihydropyrrolo[1,2-a]quinoxaline-1-carbonitrile] showed a melting point of 182 to 185 °C. In addition, in the data set on creatine kinase, the Emax was -4%. Besides, in the data set on IL-6, the IC50 was determined as 1460 nM and the Emax worked out at 86%.
With `CCC1c2ccc(C#N)n2-c2cc(F)c(F)cc2N1S(=O)(=O)c1ccc(O)cc1` (stereo not shown) [Example 93, 4-ethyl-7,8-difluoro-5-[(4-hydroxyphenyl)sulfonyl]-4,5-dihydropyrrolo[1,2-a]quinoxaline-1-carbonitrile], the melting point is 205 °C. Besides, in the data set with IL-6, the IC50 amounted to 299 nM and the Emax turned out to be 105%.
Consider `CCC1c2cccn2-c2c(cc(F)c(F)c2F)N1S(=O)(=O)c1ccc(O)cc1` (stereo not shown) [Example 98, 4-[(4-ethyl-7,8,9-trifluoropyrrolo[1,2-a]quinoxalin-5(4H)-yl)sulfonyl]phenol], for which the melting point was in the range of 175 to 176 °C. In the data set on IL-6, half-maximal inhibition (IC50) was put at 92 nM and the Emax was found to be 117%.
`CCC1c2cccn2-c2c(cc(F)c(F)c2F)N1S(=O)(=O)c1cccc(O)c1` (stereo not shown) [Example 100, 3-[(4-ethyl-7,8,9-trifluoropyrrolo[1,2-a]quinoxalin-5(4H)-yl)sulfonyl]phenol]: the melting point was in the range of 143 to 145 °C. Moreover, in the data set on creatine kinase, the EC50 is 99 nM and the Emax was 42%. Further, in the data set with IL-6, the IC50 was 14 nM and the Emax came to 193%.
Consider `CC[C@@H]1c2ccc(C#N)n2-c2cc(F)c(F)cc2N1S(=O)(=O)c1ccc(O)cc1` [Example 101 (R), (4R)-4-ethyl-7,8-difluoro-5-[(4-hydroxyphenyl)sulfonyl]-4,5-dihydropyrrolo[1,2-a]quinoxaline-1-carbonitrile], for which the melting point is 194 to 195 °C.
As to `CC[C@H]1c2ccc(C#N)n2-c2cc(F)c(F)cc2N1S(=O)(=O)c1ccc(OS(N)(=O)=O)c(C)c1` [Example 103, 4-{[(4S)-1-cyano-4-ethyl-7,8-difluoropyrrolo[1,2-a]quinoxalin-5(4H)-yl]sulfonyl}-2-methylphenyl sulfamate], the melting point is 204 to 207 °C. Moreover, in the data set on creatine kinase, the EC50 was determined as 34 nM and the Emax was -18%. Also, in the data set on IL-6, the midpoint of inhibition, the IC50, lay at 101 nM and the Emax was found to be 93%.
In turn, `CC[C@H]1c2ccc(C#N)n2-c2cc(F)c(F)cc2N1S(=O)(=O)c1ccc(OS(N)(=O)=O)cc1` [Example 104, 4-{[(4S)-1-cyano-4-ethyl-7,8-difluoropyrrolo[1,2-a]quinoxalin-5(4H)-yl]sulfonyl}phenyl sulfamate] displayed a melting point of 196 to 201 °C. Further, in the data set on IL-6, inhibition was half-maximal at 178 nM (IC50) and the Emax came to 110%.
In turn, `CCC1c2cccn2-c2ccc(F)cc2N1C(=O)c1ccc(O)cc1` (stereo not shown) [Example 118, 4-[(4-ethyl-7-fluoropyrrolo[1,2-a]quinoxalin-5(4H)-yl)carbonyl]phenol] registered a melting point of 165 to 167 °C. In the data set on creatine kinase, the EC50 was found to be 20 nM and the Emax amounted to 32%. In the data set on IL-6, the IC50 came to 3 nM and the Emax came to 95%.
Consider `CCC1c2cccn2-c2ccc(F)cc2N1C(=O)c1ccc(O)cc1O` (stereo not shown) [Example 120, 4-[(4-ethyl-7-fluoropyrrolo[1,2-a]quinoxalin-5(4H)-yl)carbonyl]benzene-1,3-diol], for which the melting point lay in the range of 153 to 155 °C.
Consider `CCC1c2cccn2-c2ccc(Cl)cc2N1C(=O)c1ccc(O)cc1O` (stereo not shown) [Example 124, 4-[(7-chloro-4-ethylpyrrolo[1,2-a]quinoxalin-5(4H)-yl)carbonyl]benzene-1,3-diol], for which the melting point fell in the range of 198 to 201 °C.
`CCC1c2cccn2-c2ccc(F)cc2N1C(=O)c1cccc(O)c1` (stereo not shown) [Example 126, 3-[(4-ethyl-7-fluoropyrrolo[1,2-a]quinoxalin-5(4H)-yl)carbonyl]phenol] registered a melting point of 115 to 117 °C.

For orientation: melting point means the temperature of the solid-liquid transition. By IC50 is commonly meant the concentration needed to halve the response being measured. Higher therefore signals weaker potency in that assay.

The values are drawn from patent US7563793B2, “Pyrrolo[1,2-a]quinoxalin-5-(4H)-yl)sulfonyls and carbonyls and their use as estrogenic agents” (Wyeth, priority 2004, dated 2009).
